From patent US20060069132A1, “Azolecarboxamide herbicides” (priority 2004, published 2006)

Experiments:
Assay in all cases: Test J Compounds 2 and 6 alone and in combination with other herbicides, foliage spray
Conditions in all cases: applied alone
[1] = system: barnyardgrass (ECHCG); assay type: in vivo, Echinochloa crus-galli; parameters: key: percentage herbicidal effect (observed)
Description: (§1) Colby's Equation was used to calculate the expected additive herbicidal effect of the mixtures of Compound 6 with Harmony® Extra (i.e. a 2:1 mixture by weight of thifensulfuron-methyl and tribenuron-methyl). Colby's Equation (Colby, S. R. “Calculating Synergistic and Antagonistic Responses of Herbicide Combinations,” Weeds, 15(1), pp 20-22 (1967)) calculates the expected additive effect of herbicidal mixtures, and for two active ingredients is of the form: Pa+b=Pa+Pb−(PaPb/100) wherein • Pa+b is the percentage effect of the mixture expected from additive contribution of the individual components, • Pa is the observed percentage effect of the first active ingredient at the same use rate as in the mixture, and • Pb is the observed percentage effect of the second active ingredient at the same use rate as in the mixture.
(§2) Seeds of test plants consisting of barnyardgrass (ECHCG; Echinochloa crus-galli (L.) Beauv.), blackgrass (ALOMY; Alopecurus myosuroides Huds.), Surinam grass (BRADC; Urochloa decumbens (Staph) R. D. Webster, previously named Brachiaria decumbens Stapf), cocklebur (XANST, Xanthium strumarium L.), corn (ZEAMD, Zea mays L. cv. ‘Pioneer 33G26’), large crabgrass (DIGSA, Digitaria sanguinalis (L.) Scop.), giant foxtail (SETFA, Setaria faberi Herrm.), lambsquarters (CHEAL, Chenopodium album L.), morningglory (IPOCO, Ipomoea coccinea L.), pigweed (AMARE, Amaranthus retroflexus L.), velvetleaf (ABUTH, Abutilon theophrasti Medik.) wheat (TRZAS, Triticum aestivum L. cv. ‘Recital’) and wild oat (AVEFA, Avena fatua L.) were planted in Redi-Earth® planting medium (Scotts Company, 14111 Scottslawn Road, Marysville, Ohio 43041) comprising spaghnum peat moss and vermiculite. Seeds of small-seeded species were planted about 1 cm deep; larger seeds were planted about 2.5 cm deep. Plants were grown in a greenhouse using supplemental lighting to maintain a photoperiod of about 14 hours; daytime and nighttime temperatures were about 24-30° C. and 22-25° C., respectively. Balanced fertilizer was applied through the watering system. The plants were grown for 7 to 11 days so that at time of treatment the plants ranged in height from 2 to 18 cm (1- to 4-leaf stage). Treatments consisted of Compounds 2 and 6 (technical material), atrazine (90DF), terbacil (Sinbar® 80DF), hexazinone (Velpar® 75WG), diuron (Karmex® 80WP) and paraquat (Gramoxone® Extra, 37%) alone and in combination, suspended or dissolved in an aqueous solvent comprising a nonionic surfactant and applied as a foliage spray using a volume of 541 L/ha. Each treatment was triply replicated. […] Treated plants and controls were maintained in the greenhouse and watered as needed with care to not wet the foliage for the first 24 hours after treatment. The effects on the plants 15 days after treatment were visually compared to untreated controls. Plant response ratings, listed in Table J as the means of the thee replicates, are based on a scale of 0 to 100 where 0 is no effect and 100 is complete control. Also listed in Table J are the expected effects for the mixtures calculated using Colby's Equation.

[2] = system: blackgrass (ALOMY); assay type: in vivo, Alopecurus myosuroides; parameters: key: 0 = no effect, 100 = complete control
Description: as §1, §2

[3] = system: Surinam grass (BRADC); assay type: in vivo, Urochloa decumbens; parameters: key: 0 = no effect, 100 = complete control
Description: as §1, §2

[4] = system: cocklebur (XANST); assay type: in vivo, Xanthium strumarium; parameters: key: 0 = no effect, 100 = complete control
Description: as §2

[5] = system: corn (ZEAMD); assay type: in vivo, Zea mays; parameters: key: percentage herbicidal effect (observed)
Description: as §1, §2

[6] = system: large crabgrass (DIGSA); assay type: in vivo, Digitaria sanguinalis; parameters: key to DIGSA Obsd.: 0 = no effect, 100 = complete control
Description: as §1, §2

[7] = system: giant foxtail (SETFA); assay type: in vivo, Setaria faberi; parameters: key: 0 = no effect, 100 = complete control
Description: as §2

[8] = system: lambsquarters (CHEAL); assay type: in vivo, Chenopodium album; parameters: key: % herbicidal effect (observed)
Description: as §1, §2

[9] = system: morningglory (IPOCO); assay type: in vivo, Ipomoea coccinea; parameters: key: 0 = no effect, 100 = complete control
Description: as §2

[10] = system: pigweed (AMARE); assay type: in vivo, Amaranthus retroflexus; parameters: key: 0 = no effect, 100 = complete control
Description: as §1, §2

[11] = system: velvetleaf (ABUTH); assay type: in vivo, Abutilon theophrasti; parameters: key: 0 = no effect, 100 = complete control
Description: as §1, §2

[12] = system: wheat (TRZAS); assay type: in vivo, Triticum aestivum; parameters: key: 0 = no effect, 100 = complete control
Description: as §1, §2

[13] = system: wild oat (AVEFA); assay type: in vivo, Avena fatua; parameters: key: 0 = no effect, 100 = complete control
Description: as §1, §2

Structure (SMILES): CCNc1nc(Cl)nc(NC(C)C)n1 [atrazine]
- ECHCG Obsd. ([1]; 125 g a.i./ha): 20
- ECHCG Obsd. ([1]; 250 g a.i./ha): 23
- ALOMY Obsd. ([2]; 125 g a.i./ha): 3
- ALOMY Obsd. ([2]; 250 g a.i./ha): 28
- BRADC Obsd. ([3]; 125 g a.i./ha): 15
- BRADC Obsd. ([3]; 250 g a.i./ha): 5
- XANST Obsd. ([4]; 125 g a.i./ha): 45
- XANST Obsd. ([4]; 250 g a.i./ha): 72
- ZEAMD Obsd. ([5]; 125 g a.i./ha): 3
- ZEAMD Obsd. ([5]; 250 g a.i./ha): 12
- DIGSA Obsd. ([6]; 125 g a.i./ha): 5
- DIGSA Obsd. ([6]; 250 g a.i./ha): 5
- SETFA Obsd. ([7]; 125 g a.i./ha): 0
- SETFA Obsd. ([7]; 250 g a.i./ha): 18
- CHEAL Obsd. ([8]; 125 g a.i./ha): 67
- CHEAL Obsd. ([8]; 250 g a.i./ha): 95
- IPOCO Obsd. ([9]; 125 g a.i./ha): 52
- IPOCO Obsd. ([9]; 250 g a.i./ha): 75
- AMARE Obsd. ([10]; 125 g a.i./ha): 38
- AMARE Obsd. ([10]; 250 g a.i./ha): 75
- ABUTH Obsd. ([11]; 125 g a.i./ha): 15
- ABUTH Obsd. ([11]; 250 g a.i./ha): 25
- TRZAS Obsd. ([12]; 125 g a.i./ha): 3
- TRZAS Obsd. ([12]; 250 g a.i./ha): 8
- AVEFA Obsd. ([13]; 125 g a.i./ha): 13
- AVEFA Obsd. ([13]; 250 g a.i./ha): 28

Structure (SMILES): CN(C)C(=O)Nc1ccc(Cl)c(Cl)c1 [diuron]
- ECHCG Obsd. ([1]; 250 g a.i./ha): 62
- ECHCG Obsd. ([1]; 500 g a.i./ha): 98
- ALOMY Obsd. ([2]; 250 g a.i./ha): 25
- ALOMY Obsd. ([2]; 500 g a.i./ha): 43
- BRADC Obsd. ([3]; 250 g a.i./ha): 68
- BRADC Obsd. ([3]; 500 g a.i./ha): 85
- XANST Obsd. ([4]; 250 g a.i./ha): 93
- XANST Obsd. ([4]; 500 g a.i./ha): 100
- ZEAMD Obsd. ([5]; 250 g a.i./ha): 20
- ZEAMD Obsd. ([5]; 500 g a.i./ha): 28
- DIGSA Obsd. ([6]; 250 g a.i./ha): 68
- DIGSA Obsd. ([6]; 500 g a.i./ha): 63
- SETFA Obsd. ([7]; 250 g a.i./ha): 35
- SETFA Obsd. ([7]; 500 g a.i./ha): 67
- CHEAL Obsd. ([8]; 250 g a.i./ha): 98
- CHEAL Obsd. ([8]; 500 g a.i./ha): 100
- IPOCO Obsd. ([9]; 250 g a.i./ha): 92
- IPOCO Obsd. ([9]; 500 g a.i./ha): 100
- AMARE Obsd. ([10]; 250 g a.i./ha): 95
- AMARE Obsd. ([10]; 500 g a.i./ha): 100
- ABUTH Obsd. ([11]; 250 g a.i./ha): 77
- ABUTH Obsd. ([11]; 500 g a.i./ha): 100
- TRZAS Obsd. ([12]; 250 g a.i./ha): 30
- TRZAS Obsd. ([12]; 500 g a.i./ha): 40
- AVEFA Obsd. ([13]; 250 g a.i./ha): 15
- AVEFA Obsd. ([13]; 500 g a.i./ha): 47
